# Experimental data taken from ChEMBL document CHEMBL1201862, “PubChem BioAssay data set” (2004).
# “And” between values parts separate entries of the source, which are not always exact repeats. Equal values may be shown once. The source made the active and inactive calls.
# How the values were obtained:
# Prothrombin = Prothrombin (Homo sapiens, UniProt P00734); assay: Thrombin 1536 HTS Dose Response Confirmation. [Related pubchem assays: 1046 (Thrombin 1536 HTS; hits were confirmed in this assay)]; type: functional
# Coagulation factor XII = molecular target: T1, Coagulation factor XII (Homo sapiens, UniProt P00748); assay: Factor XIIa Dose Response Confirmation from Single Well HTS. [Related pubchem assays (depositor defined):AID701]; type: functional
# T1 sequence (P00748 whole entry): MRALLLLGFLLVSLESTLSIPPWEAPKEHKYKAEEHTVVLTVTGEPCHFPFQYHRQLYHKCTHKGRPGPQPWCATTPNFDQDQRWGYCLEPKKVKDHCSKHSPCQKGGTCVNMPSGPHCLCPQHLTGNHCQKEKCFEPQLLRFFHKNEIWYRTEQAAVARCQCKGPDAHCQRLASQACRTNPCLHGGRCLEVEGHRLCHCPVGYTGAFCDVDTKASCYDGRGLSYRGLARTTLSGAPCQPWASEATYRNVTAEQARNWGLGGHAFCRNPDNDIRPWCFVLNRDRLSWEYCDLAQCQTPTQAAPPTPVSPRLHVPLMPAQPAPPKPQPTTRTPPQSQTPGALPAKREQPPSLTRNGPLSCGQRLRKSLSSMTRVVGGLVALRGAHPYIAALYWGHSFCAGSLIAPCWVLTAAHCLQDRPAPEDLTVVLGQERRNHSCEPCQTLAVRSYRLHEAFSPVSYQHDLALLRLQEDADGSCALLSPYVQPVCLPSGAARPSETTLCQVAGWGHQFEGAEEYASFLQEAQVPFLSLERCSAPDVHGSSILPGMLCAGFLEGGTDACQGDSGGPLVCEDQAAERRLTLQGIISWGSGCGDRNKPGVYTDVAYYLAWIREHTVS
# T-cell = assay: inhibitors of CD8+ T cell–vesicle binding, dose response, mouse 2C CD8+ T cells, flow cytometry (AID 485284); type: functional
# [1] = Luminescence Cell-Based Dose Retest to Confirm Inhibitors of Cancer Stem Cells. [Related pubchem assays (depositor defined):AID2717, AID2721]; type: functional; details: Homo sapiens
# Mucolipin-3 = molecular target: T2, Mucolipin-3 (Homo sapiens, UniProt Q8TDD5); assay: Fluorescence counterscreen assay for […] agonists: dose response cell-based high-throughput screening assay to identify agonists of the transient receptor potential channel ML3 (TRPML3). [Related pubchem assays: 1424, 1448 ]; type: functional
# T2 sequence (Q8TDD5 whole entry): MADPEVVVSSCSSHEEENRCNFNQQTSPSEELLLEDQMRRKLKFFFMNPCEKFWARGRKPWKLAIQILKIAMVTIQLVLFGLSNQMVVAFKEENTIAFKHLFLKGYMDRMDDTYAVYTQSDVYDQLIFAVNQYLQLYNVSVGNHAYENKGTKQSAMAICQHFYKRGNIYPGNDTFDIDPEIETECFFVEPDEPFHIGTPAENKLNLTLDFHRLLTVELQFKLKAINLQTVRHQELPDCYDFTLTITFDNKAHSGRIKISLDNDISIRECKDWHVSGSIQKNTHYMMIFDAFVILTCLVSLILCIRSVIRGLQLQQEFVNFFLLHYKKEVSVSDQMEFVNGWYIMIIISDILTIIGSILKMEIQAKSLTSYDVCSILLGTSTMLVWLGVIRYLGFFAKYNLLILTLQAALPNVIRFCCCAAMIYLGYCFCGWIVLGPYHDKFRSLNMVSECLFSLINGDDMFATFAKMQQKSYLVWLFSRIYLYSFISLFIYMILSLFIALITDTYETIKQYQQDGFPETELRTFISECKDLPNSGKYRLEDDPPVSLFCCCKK
# Ion channel NompC = Ion channel NompC (Danio rerio, UniProt Q7T1G6); assay: Dose response cell-based high-throughput screening assay for agonists of the transient receptor potential channel N1 (TRPN1). [Related pubchem assays (depositor defined):AID1424, AID1448]; type: functional
# Sequence of Ion channel NompC (Q7T1G6 whole entry): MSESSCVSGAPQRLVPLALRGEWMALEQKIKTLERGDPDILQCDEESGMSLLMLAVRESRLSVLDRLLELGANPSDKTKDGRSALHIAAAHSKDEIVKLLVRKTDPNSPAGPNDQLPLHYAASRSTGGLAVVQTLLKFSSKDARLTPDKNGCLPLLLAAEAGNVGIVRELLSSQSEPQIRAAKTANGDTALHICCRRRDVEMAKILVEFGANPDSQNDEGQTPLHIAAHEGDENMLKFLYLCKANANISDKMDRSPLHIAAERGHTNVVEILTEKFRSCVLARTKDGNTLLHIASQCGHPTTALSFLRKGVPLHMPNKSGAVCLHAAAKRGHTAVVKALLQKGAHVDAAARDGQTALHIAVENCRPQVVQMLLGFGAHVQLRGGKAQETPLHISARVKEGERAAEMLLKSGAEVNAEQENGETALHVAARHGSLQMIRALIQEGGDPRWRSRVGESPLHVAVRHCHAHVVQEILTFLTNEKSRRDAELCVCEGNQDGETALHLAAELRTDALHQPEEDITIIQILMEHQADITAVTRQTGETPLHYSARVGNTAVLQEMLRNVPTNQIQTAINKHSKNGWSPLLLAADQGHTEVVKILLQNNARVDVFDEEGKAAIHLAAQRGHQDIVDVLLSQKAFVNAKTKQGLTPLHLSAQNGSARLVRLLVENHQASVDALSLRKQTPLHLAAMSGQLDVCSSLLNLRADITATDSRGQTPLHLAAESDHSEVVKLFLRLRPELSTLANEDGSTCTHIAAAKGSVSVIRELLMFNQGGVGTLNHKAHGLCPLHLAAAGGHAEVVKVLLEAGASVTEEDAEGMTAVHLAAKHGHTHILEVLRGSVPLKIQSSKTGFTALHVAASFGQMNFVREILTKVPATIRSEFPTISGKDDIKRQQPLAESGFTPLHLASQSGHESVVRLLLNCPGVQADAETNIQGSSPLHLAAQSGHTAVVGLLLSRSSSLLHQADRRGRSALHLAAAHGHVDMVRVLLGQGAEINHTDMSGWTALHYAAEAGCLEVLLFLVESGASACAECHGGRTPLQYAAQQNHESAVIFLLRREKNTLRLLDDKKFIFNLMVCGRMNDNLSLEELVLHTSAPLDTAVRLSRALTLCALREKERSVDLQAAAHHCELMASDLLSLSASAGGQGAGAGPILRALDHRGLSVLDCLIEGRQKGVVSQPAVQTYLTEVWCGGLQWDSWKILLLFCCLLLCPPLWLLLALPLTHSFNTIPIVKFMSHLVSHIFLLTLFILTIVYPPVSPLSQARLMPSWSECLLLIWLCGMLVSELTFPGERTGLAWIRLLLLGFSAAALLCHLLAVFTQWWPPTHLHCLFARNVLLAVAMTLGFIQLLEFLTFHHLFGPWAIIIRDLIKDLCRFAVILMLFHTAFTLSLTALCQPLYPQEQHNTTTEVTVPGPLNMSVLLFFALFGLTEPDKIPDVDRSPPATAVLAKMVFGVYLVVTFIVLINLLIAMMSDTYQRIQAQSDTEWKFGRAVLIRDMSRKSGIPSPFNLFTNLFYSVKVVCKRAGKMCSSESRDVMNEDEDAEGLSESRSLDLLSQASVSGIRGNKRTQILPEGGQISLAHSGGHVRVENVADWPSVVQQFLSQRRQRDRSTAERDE
# [2] = molecular target: T3, Alkaline phosphatase, tissue-nonspecific isozyme (Homo sapiens, UniProt P05186); assay: human TNAP enzyme inhibitors, SAR follow-up, biochemical, luminescent, dose response (AID 1056)
# T3 sequence (P05186 whole entry): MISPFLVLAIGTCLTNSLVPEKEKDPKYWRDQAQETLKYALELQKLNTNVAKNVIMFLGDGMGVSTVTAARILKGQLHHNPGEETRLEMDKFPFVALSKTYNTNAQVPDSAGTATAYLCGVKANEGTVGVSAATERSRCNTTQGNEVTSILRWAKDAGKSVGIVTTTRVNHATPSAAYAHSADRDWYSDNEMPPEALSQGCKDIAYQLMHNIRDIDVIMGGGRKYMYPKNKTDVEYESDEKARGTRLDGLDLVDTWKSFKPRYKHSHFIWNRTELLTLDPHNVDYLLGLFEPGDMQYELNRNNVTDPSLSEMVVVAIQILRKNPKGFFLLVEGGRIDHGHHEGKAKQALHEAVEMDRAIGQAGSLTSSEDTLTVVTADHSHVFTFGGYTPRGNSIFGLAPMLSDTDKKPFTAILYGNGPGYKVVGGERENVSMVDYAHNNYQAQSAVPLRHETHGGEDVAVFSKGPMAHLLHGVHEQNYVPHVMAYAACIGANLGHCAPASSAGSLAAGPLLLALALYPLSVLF
# [3] = molecular target: Glyceraldehyde-3-phosphate dehydrogenase (Homo sapiens, UniProt P04406)
# Sequence of Glyceraldehyde-3-phosphate dehydrogenase (P04406 whole entry, the tested form may be a part): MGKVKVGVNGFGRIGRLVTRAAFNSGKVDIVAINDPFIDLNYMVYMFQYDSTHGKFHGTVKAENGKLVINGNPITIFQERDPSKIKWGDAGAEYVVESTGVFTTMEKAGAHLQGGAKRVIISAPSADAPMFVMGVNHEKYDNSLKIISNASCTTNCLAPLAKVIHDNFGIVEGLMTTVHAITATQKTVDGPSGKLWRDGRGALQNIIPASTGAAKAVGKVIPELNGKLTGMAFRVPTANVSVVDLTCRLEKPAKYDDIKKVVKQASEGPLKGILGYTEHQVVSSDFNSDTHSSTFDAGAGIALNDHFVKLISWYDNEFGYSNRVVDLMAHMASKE
# [4] = molecular target: T4, Type-1 angiotensin II receptor (Homo sapiens, UniProt P30556); assay: AT1 receptor agonists, dose response, selectivity assay for APJ receptor agonist project, cell-based, uHTS hits (AID 488865); type: functional;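 also: beta-arrestin recruitment to AT1 measured by enzyme fragment complementation luminescence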
# T4 sequence (P30556 whole entry): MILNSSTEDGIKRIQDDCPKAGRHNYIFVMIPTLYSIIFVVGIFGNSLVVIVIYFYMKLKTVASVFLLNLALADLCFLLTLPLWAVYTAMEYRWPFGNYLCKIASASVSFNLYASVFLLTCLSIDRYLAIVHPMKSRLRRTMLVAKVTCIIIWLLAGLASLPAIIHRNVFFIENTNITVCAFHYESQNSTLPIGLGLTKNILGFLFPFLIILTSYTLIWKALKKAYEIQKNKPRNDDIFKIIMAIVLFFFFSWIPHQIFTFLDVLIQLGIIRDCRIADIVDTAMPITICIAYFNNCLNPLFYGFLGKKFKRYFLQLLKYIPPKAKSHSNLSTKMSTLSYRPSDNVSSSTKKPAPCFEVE
# [5] = molecular target: DNA damage-inducible transcript 3 protein (Mus musculus, UniProt P35639); type: functional, Cricetulus griseus
# Sequence of DNA damage-inducible transcript 3 protein (P35639 whole entry): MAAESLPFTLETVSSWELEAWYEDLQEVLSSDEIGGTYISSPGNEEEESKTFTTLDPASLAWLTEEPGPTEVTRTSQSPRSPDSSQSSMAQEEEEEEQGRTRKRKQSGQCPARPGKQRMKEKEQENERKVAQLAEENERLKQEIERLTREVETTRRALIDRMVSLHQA
# HEK293 = assay: inhibitors of LMP1-driven NF-kB reporter, dose response, cell-based, HEK293, luciferase, cherry-pick (AID 588343); type: functional; details: Homo sapiens
# [6] = Vero E6 cell cytotoxicity, dose response, cytotoxicity control for non-replicating M. tuberculosis project, secondary assay (AID 492998); type: functional, VeroE6; details: Vero C1008
# cells = type: functional
# Beta-galactosidase = Beta-galactosidase (Escherichia coli, UniProt Q8VNN2); assay: beta-galactosidase enzyme inhibitors and activators, dose response, artefact control for CCR6 antagonist project, biochemical, E. coli enzyme, set 3 (AID 504712); type: functional
# Sequence of Beta-galactosidase (Q8VNN2 whole entry): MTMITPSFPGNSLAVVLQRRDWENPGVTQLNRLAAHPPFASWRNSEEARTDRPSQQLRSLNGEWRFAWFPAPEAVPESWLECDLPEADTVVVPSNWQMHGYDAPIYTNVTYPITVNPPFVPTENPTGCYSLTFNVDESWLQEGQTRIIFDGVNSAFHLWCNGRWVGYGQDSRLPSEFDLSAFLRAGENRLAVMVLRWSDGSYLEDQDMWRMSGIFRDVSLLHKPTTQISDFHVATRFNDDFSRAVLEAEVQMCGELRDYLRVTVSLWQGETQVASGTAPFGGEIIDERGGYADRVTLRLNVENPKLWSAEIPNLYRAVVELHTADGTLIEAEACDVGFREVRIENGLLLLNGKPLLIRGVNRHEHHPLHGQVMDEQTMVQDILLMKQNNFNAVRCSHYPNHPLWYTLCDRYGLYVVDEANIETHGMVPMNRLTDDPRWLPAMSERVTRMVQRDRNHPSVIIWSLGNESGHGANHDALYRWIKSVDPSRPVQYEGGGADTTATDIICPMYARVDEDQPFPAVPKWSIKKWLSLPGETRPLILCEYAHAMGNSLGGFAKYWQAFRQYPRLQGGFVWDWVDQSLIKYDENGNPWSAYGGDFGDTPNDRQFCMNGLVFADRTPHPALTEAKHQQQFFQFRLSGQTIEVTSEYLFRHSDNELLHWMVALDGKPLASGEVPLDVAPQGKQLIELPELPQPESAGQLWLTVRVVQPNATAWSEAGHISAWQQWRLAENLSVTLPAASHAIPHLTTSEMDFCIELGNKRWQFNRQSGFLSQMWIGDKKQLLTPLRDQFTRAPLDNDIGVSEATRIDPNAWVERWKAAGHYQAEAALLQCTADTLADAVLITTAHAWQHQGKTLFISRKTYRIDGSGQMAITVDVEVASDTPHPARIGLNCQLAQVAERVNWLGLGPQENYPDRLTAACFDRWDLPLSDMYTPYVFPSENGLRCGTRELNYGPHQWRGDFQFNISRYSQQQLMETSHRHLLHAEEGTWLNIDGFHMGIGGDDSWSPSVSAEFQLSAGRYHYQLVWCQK
# [7] = molecular target: Sphingosine 1-phosphate receptor 1 (Homo sapiens, UniProt P21453); type: functional;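 also: Tango beta-arrestin reporter U2OS cells stimulated with S1P near its EC80; inhibitor potency meaning antagonism of receptor activation by the natural agonist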
# Sequence of Sphingosine 1-phosphate receptor 1 (P21453 whole entry): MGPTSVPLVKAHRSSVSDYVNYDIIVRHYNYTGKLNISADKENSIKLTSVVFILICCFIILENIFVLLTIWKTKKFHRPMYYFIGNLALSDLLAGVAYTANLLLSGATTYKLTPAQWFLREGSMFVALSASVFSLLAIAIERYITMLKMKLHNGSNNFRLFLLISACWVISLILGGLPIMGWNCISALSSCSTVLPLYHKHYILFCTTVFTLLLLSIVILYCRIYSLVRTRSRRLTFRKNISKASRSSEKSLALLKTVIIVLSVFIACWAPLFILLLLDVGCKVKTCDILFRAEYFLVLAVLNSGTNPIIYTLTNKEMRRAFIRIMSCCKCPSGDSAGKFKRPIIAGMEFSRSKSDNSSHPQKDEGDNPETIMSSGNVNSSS
# X-box-binding protein 1 = X-box-binding protein 1 (Homo sapiens, UniProt P17861); type: functional, Cricetulus griseus;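 also: confirmatory dose-response counter-screen serving a CHOP assay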
# Sequence of X-box-binding protein 1 (P17861 whole entry): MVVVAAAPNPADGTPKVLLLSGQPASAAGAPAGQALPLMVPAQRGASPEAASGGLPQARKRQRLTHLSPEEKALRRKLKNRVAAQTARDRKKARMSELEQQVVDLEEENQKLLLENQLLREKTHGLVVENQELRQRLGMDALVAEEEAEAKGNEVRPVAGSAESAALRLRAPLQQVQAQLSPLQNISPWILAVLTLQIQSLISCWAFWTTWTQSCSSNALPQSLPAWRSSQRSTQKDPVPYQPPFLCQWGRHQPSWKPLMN
# [8] = THP-1 cell cytotoxicity, dose response, cytotoxicity control for non-replicating M. tuberculosis project (AID 489025); type: functional
# [9] = growth suppression of PTEN-null colon cells, dose response, cell-based, HCT116 PTEN knockout (AID 1047); type: functional;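 also: HCT116 colon tumor cells with PTEN knocked out; cells exposed to compound for 60 hours before readout; potency for loss of cell viability measured by luminescence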
# [10] = molecular target: T5, Sphingosine 1-phosphate receptor 4 (Homo sapiens, UniProt O95977); assay: Fluorescence dose response cell-based high throughput screening assay for antagonists of the Sphingosine 1-Phosphate Receptor 4 (S1P4). [Related pubchem assays: 1524 (Confirmation in triplicates.), 1510 (Primary screen.)]; type: functional
# T5 sequence (O95977 whole entry): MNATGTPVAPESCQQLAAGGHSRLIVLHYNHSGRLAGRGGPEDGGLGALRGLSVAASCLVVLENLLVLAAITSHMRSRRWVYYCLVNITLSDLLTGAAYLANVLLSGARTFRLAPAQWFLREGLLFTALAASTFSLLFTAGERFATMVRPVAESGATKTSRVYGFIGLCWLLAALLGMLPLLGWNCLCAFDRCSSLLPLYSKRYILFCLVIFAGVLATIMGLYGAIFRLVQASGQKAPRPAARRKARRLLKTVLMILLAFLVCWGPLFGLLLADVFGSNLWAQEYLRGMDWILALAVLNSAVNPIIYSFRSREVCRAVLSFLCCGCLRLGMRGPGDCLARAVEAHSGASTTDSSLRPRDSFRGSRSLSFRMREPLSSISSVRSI
# [11] = growth suppression of beta-catenin-knockout colon cells, dose response, cell-based, HCT116, human colon tumor (AID 1045); type: functional;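 also: HCT116 colon tumor cells with beta catenin knocked out; cells exposed to compound for 60 hours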
# [12] = molecular target: T6, Heat shock factor protein 1 (Mus musculus, UniProt P38532); assay: inhibition of MG132-induced HSE-luciferase signal, confirmation, cell-based, NIH3T3, luminescence, dose retest (AID 2382); type: functional;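 also: NIH3T3 fibroblasts with HSF1-driven luciferase reporter stressed by proteasome inhibitor MG132; luminescence from HSF1-driven luciferase expression after 8 hours of MG132 stress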
# T6 sequence (P38532 whole entry): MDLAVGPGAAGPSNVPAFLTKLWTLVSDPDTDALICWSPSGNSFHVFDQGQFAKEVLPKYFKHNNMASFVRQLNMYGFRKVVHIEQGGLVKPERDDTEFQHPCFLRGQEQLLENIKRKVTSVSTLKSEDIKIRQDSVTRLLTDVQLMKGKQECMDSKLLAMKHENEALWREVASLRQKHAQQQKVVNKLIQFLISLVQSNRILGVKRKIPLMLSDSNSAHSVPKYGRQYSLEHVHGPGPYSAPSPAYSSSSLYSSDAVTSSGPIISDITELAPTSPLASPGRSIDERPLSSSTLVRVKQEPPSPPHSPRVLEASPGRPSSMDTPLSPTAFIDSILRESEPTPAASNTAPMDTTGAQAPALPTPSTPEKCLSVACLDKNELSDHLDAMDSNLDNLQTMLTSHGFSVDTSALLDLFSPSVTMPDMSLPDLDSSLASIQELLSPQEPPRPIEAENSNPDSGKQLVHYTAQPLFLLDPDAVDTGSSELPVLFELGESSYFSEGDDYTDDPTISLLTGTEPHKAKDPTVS
# [13] = molecular target: T5, Sphingosine 1-phosphate receptor 4; assay: Late-stage fluorescence dose response cell-based assay to identify agonists of the Sphingosine 1-Phosphate Receptor 4 (S1P4): purchased compounds EC50. [Related pubchem assays (depositor defined):AID1509, AID1523, AID1563, AID1686, AID1701, AID1801]; type: functional
# Vero [14] = assay: cells; type: functional; details: Chlorocebus sabaeus
# DLD-1 [15] = assay: reduction of KLF5 protein levels, late-stage follow-up, orthogonal assay for KLF5 inhibitor project, western blot, chemiluminescence, DLD-1 cells, titration (AID 485336); type: functional, cell-based; details: Homo sapiens
# Vero [16] = assay: cells; type: functional, cell-based; details: Chlorocebus sabaeus
# [17] = Luminescence Cell-Based Dose Response HTS to Identify Inhibitors of 5'UTR Stem-Loop Driven Prion Protein mRNA Translation in H4 Neuroglioblastoma Cells. [Related pubchem assays: 1827 (Project Summary), 1813 (Primary HTS)]; type: functional
# DLD-1 [18] = assay: cytotoxicity in DLD-1 colorectal cells, late-stage follow-up, cytotoxicity control for KLF5 inhibitor project, cell-based, luminescence, round 1 (AID 485338); type: functional; details: Homo sapiens
# Vero [19] = assay: host cell cytotoxicity of antiviral hits, dose response, cytotoxicity control for West Nile virus antiviral project, secondary assay (AID 1650); type: functional; details: Chlorocebus sabaeus
# [20] = inhibitors of SNCA 5'UTR-driven reporter translation, confirmation, H4 neuroglioma cells, luminescence (AID 1988); type: functional, cell-based
# [21] = inhibitors of firefly luciferase expression or activity, dose response, H4 neuroglioma cells, luminescence (AID 1990); type: functional, cell-based
# [22] = Luminescence-based counterscreen assay for KLF5 inhibitors: dose response cell-based high throughput screening assay to identify cytotoxic compounds using the IEC-6 intestinal epithelial cell line. [Related pubchem assays: 1700 (Primary screen.), 1834 (Confirmation screen.), 1858 (Summary AID.), 1905 (Counterscreen.)]; type: functional
smiles,measurement,setting,value
COc1cccc(-c2nc3ccccc3c(=O)o2)c1,IC50,Prothrombin,6.94 µM (active)
same,IC50,Coagulation factor XII,> 50 µM (inconclusive)
CC1(C)Cc2c(C#N)c(NC3CCCCC3)nc(-c3ccco3)c2CO1,EC50,T-cell,6.98 µM (active)
same,AC50,[1],5.72 µM (active)
CCOC(=O)Cn1c(=O)oc2cc(S(=O)(=O)Nc3ccc(F)cc3)ccc21,EC50,Mucolipin-3,> 29.9 µM (not active)
same,EC50,Ion channel NompC,> 29.9 µM (inactive)
O=C(O)c1ccc(-c2ccccc2)[nH]1,IC50,[2],> 100 µM (inactive)
same,IC50,[3],> 100 µM (not active)
CCOc1cc2[nH]c(=S)n(CC3CCCN3CC)c(=O)c2cc1OCC (stereo unspecified),EC50,[4],> 100 µM (inactive)
O=C1c2cccc3c([N+](=O)[O-])ccc(c23)C(=O)N1c1ccccn1,Absolute IC50 (CHOP),[5],10 µM
same,AC50,HEK293,5.7 µM (active)
same,CC50,[6],12.3 µM (active)
same,IC50,cells,20.3 µM (active)
same,IC50,Beta-galactosidase,> 66.6 µM (inactive)
same,IC50,[7],2.29 µM (active)
same,Absolute IC50 (XBP1),X-box-binding protein 1,10 µM
same,CC50,[8],6.16 µM (active)
same,EC50,[9],4.17 µM (active)
same,IC50,[10],0.75 µM (active)
same,EC50,[11],2.38 µM (active)
same,EC50,[12],12.8 µM (active)
Cc1ccc(OCC(=O)Nc2cc(Cl)cc(Cl)c2)c([N+](=O)[O-])n1,EC50,[13],3.6 µM (active) and > 50 µM (inactive)
C[C@@H]1O[C@@H](O[C@H]2C[C@@H](O)[C@]3(CO)[C@H]4[C@H](O)C[C@]5(C)[C@@H](C6=CC(=O)OC6)CC[C@]5(O)[C@@H]4CC[C@]3(O)C2)[C@H](O)[C@H](O)[C@H]1O [OUABAIN],CC50,Vero [14],0.13 µM (active)
same,IC50,DLD-1 [15],0.0297 µM (active)
same,IC50,Vero [16],< 0.05 µM (active)
same,EC50,[17],< 0.1 µM (active)
same,IC50,DLD-1 [18],0.0464 µM (active)
same,CC50,Vero [19],0.16 µM (active)
same,EC50,[20],< 0.1 µM (active)
same,EC50,[21],< 0.1 µM (active)
same,IC50,[22],> 39.8 µM (not active)
